Nine compounds from publication PMC6631792, “In Vitro and In Vivo Anti-Breast Cancer Activities of Some Newly Synthesized 5-(thiophen-2-yl)thieno-[2,3-d]pyrimidin-4-one Candidates” (Molecules, 2019) can be followed below.

Read-outs that look alike come from different tables or passages of the source.

The test system of one series is MCF-7 cells. In words: MTT cytotoxic assay on MCF-7 cells. The series is classed as cell-based, Human. From the text: “Human breast cancer cells (MCF-7) and normal non-tumorigenic MCF-10A cells were used throughout the work. Cells were obtained from ATCC, Gaithersburg, MD, USA. Standard MTT assay was used to explore the possible cytotoxic effects of the synthesized compounds [41, 42]. Medium composition, cultivation conditions and assay performance were exactly the same as our previous work. […] After MTT addition, the absorbance of the dissolved formazan crystals was read at 570 nm. The IC50 values were obtained with linear regression equations using Origin® 6.1 software (Origin Lab Corporation, Northampton, MA, USA)”.
(In general: Formazan colour is commonly taken as a measure of viable cells.)

The nature of series [1]: Average animal weight in MCF-7 mouse xenograft model. The series is classed as in vivo. Conditions: nude mice with MCF-7 xenograft, i.p.; for Average Weight of Animals in Grams after Days 0: day 0; for Average Weight of Animals in Grams after Days 2: day 2; for Average Weight of Animals in Grams after Days 4: day 4; for Average Weight of Animals in Grams after Days 6: day 6; for Average Weight of Animals in Grams after Days 8: day 8; for Average Weight of Animals in Grams after Days 10: day 10; for Average Weight of Animals in Grams after Days 12: day 12; for Average Weight of Animals in Grams after Days 14: day 14; for Average Weight of Animals in Grams after Days 16: day 16; for Average Weight of Animals in Grams after Days 18: day 18; for Average Weight of Animals in Grams after Days 20: day 20; for Average Weight of Animals in Grams after Days 22: day 22. From the text:
“In this work, MCF-7 mouse xenograft model was used. The animal protocol was approved by the Institutional Animal Use Ethics and Care Committee of the University of Alabama at Birmingham (50-01-05-08B). Female athymic pathogen-free nude mice (nu/nu, 4–6 weeks) were purchased from Frederick Cancer Research and Development Center (Frederick, MD, USA). To establish MCF-7 human breast cancer xenografts, each of the female nude mice was first implanted with a 60-day (subcutaneously, s.c.) slow release estrogen pellet (SE-121, 1.7 mg […]/pellet; Innovative Research of America, Sarasota, FL, USA). After 24 h, grown cells were harvested, washed twice with serum-free medium, resuspended, and injected subcutaneously (5 million cells/0.2 mL) into the left inguinal area of the mice. During the experiment, animals were checked periodically and the percentages of tumor growth, as well as animal weights, were recorded. Every 48 h, the size of the tumor was recorded by measuring two perpendicular diameters of the tumor and tumor volume was calculated according to Wang et al. [46]”.
“Treated animals and control groups (7–10 mice/group) received different compounds and vehicles, respectively. The tested compounds were dissolved in PEG400:ethanol:saline (57.1:14.3:28.6, v/v/v), and injected intraperitoneal (i.p.) at doses of […], 3 d/wk for 3 weeks. The higher dose (10 µM/kg/d, 3 d/wk) inhibited MCF-7 xenograft tumor growth”.

Consider `NC1=CC(N)N(NC(=O)Cn2cnc3scc(-c4cccs4)c3c2=O)C=C1` (stereo not drawn) [Compound 15, N-(2,4-Diaminopyridin-1(2H)-yl)-2-(4-oxo-5-(thiophen-2-yl)thieno[2,3-d]-pyrimidin-3(4H)-yl)acetamide], for which the IC50 in the series with MCF-7 cells (Homo sapiens, MCF7) was found to be 1.18 ± 0.032 µM. Moreover, in series [1], the “Average Weight of Animals in Grams after Days 0” value (from here on “Average Weight … after Days 0”) stood at 26.1 Grams, the “Average Weight of Animals in Grams after Days 2” value was 26.1 Grams, the “Average Weight of Animals in Grams after Days 4” value (from here on “Average Weight … after Days 4”) is recorded as 26.1 Grams and the “Average Weight of Animals in Grams after Days 6” value (from here on “Average Weight … after Days 6”) was found to be 25.8 Grams. Besides, in series [1], the “Average Weight of Animals in Grams after Days 8” value (from here on “Average Weight … after Days 8”) came out at 25.8 Grams, the “Average Weight of Animals in Grams after Days 10” value (from here on “Average Weight … after Days 10”) worked out at 25.7 Grams, the “Average Weight of Animals in Grams after Days 12” value (shortened to “Average Weight … after Days 12”) is 25.7 Grams and the “Average Weight of Animals in Grams after Days 14” value (“Average Weight … after Days 14” below) was 25.6 Grams. For the same compound, in series [1], the “Average Weight of Animals in Grams after Days 16” value (from here on “Average Weight … after Days 16”) worked out at 25.6 Grams, the “Average Weight of Animals in Grams after Days 18” value (shortened to “Average Weight … after Days 18”) is reported as 25.5 Grams, the “Average Weight of Animals in Grams after Days 20” value (“Average Weight … after Days 20” below) is reported as 25.5 Grams and the “Average Weight of Animals in Grams after Days 22” value (from here on “Average Weight … after Days 22”) worked out at 25.2 Grams.
Compound `CCOC(=O)Cn1cnc2scc(-c3cccs3)c2c1=O` [Compound 3, ethyl 2-(4-oxo-5-(thiophen-2-yl)thieno[2,3-d]pyrimidin-3(4H)-yl)acetate] returned an IC50 in the series on MCF-7 cells (Homo sapiens, MCF7) of 5.98 ± 0.099 µM. In series [1], the “Average Weight … after Days 0” value is 28 Grams, the “Average Weight of Animals in Grams after Days 2” value is on record as 28 Grams, the “Average Weight … after Days 4” value is recorded as 28 Grams and the “Average Weight … after Days 6” value was 28 Grams. In series [1], the “Average Weight … after Days 8” value stood at 28.2 Grams, the “Average Weight … after Days 10” value is given as 27.9 Grams, the “Average Weight … after Days 12” value came out at 27.8 Grams and the “Average Weight … after Days 14” value is 27.7 Grams. Also, in series [1], the “Average Weight … after Days 16” value came to 27.7 Grams, the “Average Weight … after Days 18” value was 27.6 Grams, the “Average Weight … after Days 20” value amounted to 27.7 Grams and the “Average Weight … after Days 22” value is 27.7 Grams.
`CC(=O)NNC(=O)Cn1cnc2scc(-c3cccs3)c2c1=O` [Compound 13, N′-acetyl-2-(4-oxo-5-(thiophen-2-yl)thieno[2,3-d]pyrimidin-3(4H)-yl)aceto-hydrazide] came in with an IC50 in the series on MCF-7 cells (Homo sapiens, MCF7) of 3.64 ± 0.074 µM. For the same compound, in series [1], the “Average Weight … after Days 0” value worked out at 25.4 Grams, the “Average Weight of Animals in Grams after Days 2” value is given as 25.4 Grams, the “Average Weight … after Days 4” value was 25.4 Grams and the “Average Weight … after Days 6” value is 25.4 Grams. In addition, in series [1], the “Average Weight … after Days 8” value is 25.4 Grams, the “Average Weight … after Days 10” value amounted to 25.3 Grams, the “Average Weight … after Days 12” value stood at 25.3 Grams and the “Average Weight … after Days 14” value amounted to 25.3 Grams. In addition, in series [1], the “Average Weight … after Days 16” value was 25.3 Grams, the “Average Weight … after Days 18” value amounted to 25.3 Grams, the “Average Weight … after Days 20” value is recorded as 25.3 Grams and the “Average Weight … after Days 22” value is recorded as 25.3 Grams.
In turn, `N.N.[Cl][Pt][Cl]` [Cisplatin, reference compound] had an IC50 in the series on MCF-7 cells of 13.34 ± 0.11 µM.
In turn, `COc1cccc(C2SCC(=O)N2NC(=O)Cn2cnc3scc(-c4cccs4)c3c2=O)c1OC` (stereo not drawn) [Compound 8, N-(2-(2,3-Dimethoxyphenyl)-4-oxothiazolidin-3-yl)-2-(4-oxo-5-(thiophen-2-yl)thieno[2,3-d]pyrimidin-3(4H)-yl)acetamide] registered an IC50 in the series with MCF-7 cells (Homo sapiens, MCF7) of 1.26 ± 0.052 µM. In series [1], the “Average Weight … after Days 0” value turned out to be 25.3 Grams, the “Average Weight of Animals in Grams after Days 2” value is 25.3 Grams, the “Average Weight … after Days 4” value is 25.2 Grams and the “Average Weight … after Days 6” value is recorded as 25.2 Grams. In series [1], the “Average Weight … after Days 8” value is 25.2 Grams, the “Average Weight … after Days 10” value stood at 25.1 Grams, the “Average Weight … after Days 12” value came to 25.1 Grams and the “Average Weight … after Days 14” value was 24.8 Grams. Moreover, in series [1], the “Average Weight … after Days 16” value came to 24.7 Grams, the “Average Weight … after Days 18” value worked out at 24.6 Grams, the “Average Weight … after Days 20” value was found to be 24.5 Grams and the “Average Weight … after Days 22” value is reported as 24.2 Grams.
Consider `Nc1cc(O)cc(=O)n1NC(=O)Cn1cnc2scc(-c3cccs3)c2c1=O` [Compound 14, N-(6-Amino-4-hydroxy-2-oxopyridin-1(2H)-yl)-2-(4-oxo-5-(thiophen-2-yl)thieno[2,3-d]-pyrimidin-3(4H)-yl)acetamide], for which the half-inhibitory concentration (IC50) in the series with MCF-7 cells (Homo sapiens, MCF7) came out at 1.19 ± 0.042 µM. Also, in series [1], the “Average Weight … after Days 0” value is recorded as 26.5 Grams, the “Average Weight of Animals in Grams after Days 2” value amounted to 26.4 Grams, the “Average Weight … after Days 4” value is 26.3 Grams and the “Average Weight … after Days 6” value was determined as 26.2 Grams. Moreover, in series [1], the “Average Weight … after Days 8” value is given as 26.1 Grams, the “Average Weight … after Days 10” value is given as 25.9 Grams, the “Average Weight … after Days 12” value was found to be 25.9 Grams and the “Average Weight … after Days 14” value was found to be 25.9 Grams. In series [1], the “Average Weight … after Days 16” value was 25.8 Grams, the “Average Weight … after Days 18” value was determined as 25.8 Grams, the “Average Weight … after Days 20” value was determined as 25.7 Grams and the “Average Weight … after Days 22” value was found to be 25.7 Grams.
With Milaplatin [reference compound], in the series with MCF-7 cells, half-maximal inhibition (IC50) was put at 18.43 ± 0.13 µM.
Compound `Cc1cc(=O)n(C(=O)Cn2cnc3scc(-c4cccs4)c3c2=O)[nH]1` [Compound 12, 3-(2-(3-methyl-5-oxo-2,5-dihydro-1H-pyrazol-1-yl)-2-oxoethyl)-5-(thiophen-2-yl)thieno-[2,3-d]pyrimidin-4(3H)-one] yielded a half-maximal inhibitory concentration (IC50) in the series with MCF-7 cells (Homo sapiens, MCF7) of 3.36 ± 0.063 µM. For the same compound, in series [1], the “Average Weight … after Days 0” value is 27.4 Grams, the “Average Weight of Animals in Grams after Days 2” value worked out at 27.4 Grams, the “Average Weight … after Days 4” value is recorded as 27.4 Grams and the “Average Weight … after Days 6” value was 27.3 Grams. For the same compound, in series [1], the “Average Weight … after Days 8” value stood at 27.3 Grams, the “Average Weight … after Days 10” value is listed as 27.3 Grams, the “Average Weight … after Days 12” value came out at 27.2 Grams and the “Average Weight … after Days 14” value came to 27.2 Grams. In series [1], the “Average Weight … after Days 16” value turned out to be 27.2 Grams, the “Average Weight … after Days 18” value amounted to 27.1 Grams, the “Average Weight … after Days 20” value is reported as 27.1 Grams and the “Average Weight … after Days 22” value amounted to 27.1 Grams.
In the case of `O=c1oc(Cn2cnc3scc(-c4cccs4)c3c2=O)nc2ccccc12` [Compound 5, 2-((4-oxo-5-(thiophen-2-yl)thieno[2,3-d]pyrimidin-3(4H)-yl)methyl)-4H-benzo[d]-[1,3] oxazin-4-one], the midpoint of inhibition with MCF-7 cells (Homo sapiens, MCF7), the IC50, lay at 4.76 ± 0.087 µM. Besides, in series [1], the “Average Weight … after Days 0” value stood at 22.9 Grams, the “Average Weight of Animals in Grams after Days 2” value is 22.9 Grams, the “Average Weight … after Days 4” value is listed as 22.9 Grams and the “Average Weight … after Days 6” value was 22.8 Grams. In addition, in series [1], the “Average Weight … after Days 8” value came to 22.8 Grams, the “Average Weight … after Days 10” value is 22.7 Grams, the “Average Weight … after Days 12” value was determined as 22.8 Grams and the “Average Weight … after Days 14” value was 22.7 Grams. Besides, in series [1], the “Average Weight … after Days 16” value amounted to 22.9 Grams, the “Average Weight … after Days 18” value is given as 22.6 Grams, the “Average Weight … after Days 20” value was 22.6 Grams and the “Average Weight … after Days 22” value is given as 22.5 Grams.

A word on the IC50: it is the concentration that gives 50% inhibition. A low value points to greater potency.
